Experimental data reported in US20230147942A1, “PHARMACEUTICAL COMPOSITION COMPRISING NEW LACTOBACILLUS PLANTARUM KC3 STRAIN AND LEONURUS JAPONICUS EXTRACT AS ACTIVE INGREDIENTS FOR PREVENTING OR TREATING RESPIRATORY DISEASE AND USE THEREOF” (KT&G CORPORATION, priority 2020, published 2023).
Where a SMILES comes first, the peptide text is derived from it. Bridges are numbered along the chain shown (N, C = ends). [ ]: non-standard residue; d: D form. The star is where a group is joined. Ileψ(thiazoline)Cys = CC[C@H](C)[C@H](N)C1=N[C@H](C(=O)*)CS1; dOrn = NCCC[C@@H](N)C(=O)O

The compounds below were run on Lactobacillus plantarum KC3 (assay: Antibiotic susceptibility of strain (antibiotic strips on LSM solid medium)). Conditions: 37° C., 24 hours.
Type: cell-based
Description: In order to confirm antibiotics resistance level of the new lactic acid bacteria from the of the Lactobacillus plantarum KC3 the present disclosure, an experiment was performed as follows by applying the method described in the document
To measure the antibiotics resistance level of the strain, an MIC test was carried out. Lactic acid bacteria that were inoculated into an MRS medium (DF0881-17-5, Difco) and cultured at 37° C. for 18 hours were spread on an LSM solid medium (90% iso-sensitest broth (CM0473, Oxoid), 10% MRS medium (DF0881-17-5, Difco), and 1.5% agar (214010, Difco)). Strips for each type of antibiotics, such as Amikacin (92018, Liofilchem srl), Gentamycin (92009, Liofilchem srl), Kanamycin (92034, Liofilchem srl), Streptomycin (92112, Liofilchem srl), Penicillin-G (92102, Liofilchem srl), Oxacillin (92015, Liofilchem srl), Ampicillin (920030, Liofilchem srl), Bacitracin (92019, Liofilchem srl), Rifampicin (92001, Liofilchem srl), Polymyxin B (92004, Liofilchem srl), Chloramphenico 1(92075, Liofilchem srl), Vancomycin (92057, Liofilchem srl), and the like, were put on the medium, and the bacteria were grown at 37° C. for 24 hours.
In Table 4, R indicates resistance and represents that the size of an inhibition zone is about 0 mm; IS indicates mediate resistance and represents that the size of an inhibition zone is in a range of about 1 mm to about 5 mm; and S indicates susceptibility and represents that the size of an inhibition zone is greater than about 5 mm.

Compound | Antibiotic resistance (class) | Antibiotic resistance, size of inhibition zone [mm]
NCC[C@H](O)C(=O)N[C@@H]1C[C@H](N)[C@@H](O[C@H]2O[C@H](CN)[C@@H](O)[C@H](O)[C@H]2O)[C@H](O)[C@H]1O[C@H]1O[C@H](CO)[C@@H](O)[C@H](N)[C@H]1O [Amikacin] | IS (IS indicates mediate resistance and represents that the size of an inhibition zone is in a range of about 1 mm to about 5 mm) | 1
CC1(C)S[C@@H]2[C@H](NC(=O)[C@H](N)c3ccccc3)C(=O)N2[C@H]1C(=O)O [Ampicillin] | S (S indicates susceptibility and represents that the size of an inhibition zone is greater than about 5 mm) | 14
CC[C@H](C)[C@H](N)C1=N[C@H](C(=O)N[C@@H](CC(C)C)C(=O)N[C@H](CCC(=O)O)C(=O)N[C@H](C(=O)N[C@H]2CCCCNC(=O)[C@H](CC(N)=O)NC(=O)[C@@H](CC(=O)O)NC(=O)[C@H](Cc3cnc[nH]3)NC(=O)[C@@H](Cc3ccccc3)NC(=O)[C@H]([C@@H](C)CC)NC(=O)[C@@H](CCCN)NC2=O)[C@@H](C)CC)CS1 [Bacitracin] ({Ileψ(thiazoline)Cys}-L[dE]IK[dOrn]I[dF]H[dD]N; lactam 4-C) | S (S indicates susceptibility and represents that the size of an inhibition zone is greater than about 5 mm) | 7
O=C(N[C@H](CO)[C@H](O)c1ccc([N+](=O)[O-])cc1)C(Cl)Cl [Chloramphenicol] | S (S indicates susceptibility and represents that the size of an inhibition zone is greater than about 5 mm) | 10
NC[C@H]1O[C@H](O[C@H]2[C@H](O)[C@@H](O[C@H]3O[C@H](CO)[C@@H](O)[C@H](N)[C@H]3O)[C@H](N)C[C@@H]2N)[C@H](O)[C@@H](O)[C@@H]1O [Kanamycin] | R (R indicates resistance and represents that the size of an inhibition zone is about 0 mm) | 0
CCC[C@@H]1C[C@@H](C(=O)N[C@@H]([C@H]2O[C@H](SC)[C@H](O)[C@@H](O)[C@H]2O)[C@@H](C)O)N(C)C1 [Lincomycin] | S (S indicates susceptibility and represents that the size of an inhibition zone is greater than about 5 mm) | 10
CO[C@@H]1[C@@H](OC(N)=O)[C@@H](O)[C@H](Oc2ccc3c(O)c(NC(=O)c4ccc(O)c(CC=C(C)C)c4)c(=O)oc3c2C)OC1(C)C [Novabiocin] | S (S indicates susceptibility and represents that the size of an inhibition zone is greater than about 5 mm) | 7
Cc1onc(-c2ccccc2)c1C(=O)N[C@@H]1C(=O)N2[C@@H]1SC(C)(C)[C@@H]2C(=O)O [Oxacillin] | IS (IS indicates mediate resistance and represents that the size of an inhibition zone is in a range of about 1 mm to about 5 mm) | 2
CC1(C)S[C@@H]2[C@H](NC(=O)Cc3ccccc3)C(=O)N2[C@H]1C(=O)O [Penicillin-G] | IS (IS indicates mediate resistance and represents that the size of an inhibition zone is in a range of about 1 mm to about 5 mm) | 5
CO[C@H]1/C=C/O[C@@]2(C)Oc3c(C)c(O)c4c(O)c(c(/C=N/N5CCN(C)CC5)c(O)c4c3C2=O)NC(=O)/C(C)=C\C=C\[C@H](C)[C@H](O)[C@@H](C)[C@@H](O)[C@@H](C)[C@H](OC(C)=O)[C@@H]1C [Rifampicin] | S (S indicates susceptibility and represents that the size of an inhibition zone is greater than about 5 mm) | 7
[H]/N=C(/N)N[C@H]1[C@H](O)[C@@H](O)[C@H](O[C@@H]2O[C@@H](C)[C@](O)(C=O)[C@H]2O[C@@H]2O[C@@H](CO)[C@H](O)[C@@H](O)[C@@H]2NC)[C@@H](N/C(N)=N\[H])[C@@H]1O [Streptomycin] | R (R indicates resistance and represents that the size of an inhibition zone is about 0 mm) | 0
CN[C@H](CC(C)C)C(=O)N[C@H]1C(=O)N[C@@H](CC(N)=O)C(=O)N[C@H]2C(=O)N[C@H]3C(=O)N[C@H](C(=O)N[C@H](C(=O)O)c4cc(O)cc(O)c4-c4cc3ccc4O)[C@H](O)c3ccc(c(Cl)c3)Oc3cc2cc(c3O[C@@H]2O[C@H](CO)[C@@H](O)[C@H](O)[C@H]2O[C@H]2C[C@](C)(N)[C@H](O)[C@H](C)O2)Oc2ccc(cc2Cl)[C@H]1O [Vancomycin] | R (R indicates resistance and represents that the size of an inhibition zone is about 0 mm) | 0
Gentamycin | IS (IS indicates mediate resistance and represents that the size of an inhibition zone is in a range of about 1 mm to about 5 mm) | 3
Neomycin | IS (IS indicates mediate resistance and represents that the size of an inhibition zone is in a range of about 1 mm to about 5 mm) | 3
Polymyxin B | R (R indicates resistance and represents that the size of an inhibition zone is about 0 mm) | 0
